Assay results as given in patent publication US11214594B2, “Antimicrobial peptide having synergistic antibacterial effect with antibiotics on multidrug resistant bacteria, and use thereof” (priority 2016, dated 2022).
Values after ≈ are worked out from the molar mass of the structure shown. Where a SMILES comes first, the peptide text is derived from it.

Key:
E. coli [1] = experiment: microbe, parasite or virus in culture; format: cell-based, Escherichia coli; settings: 16 h
Procedure, shortened: (§1)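 Broth microdilution in MH medium: bacterial strains diluted to 2×10^6 CFU were mixed with equal volumes of peptide serially diluted twofold in MH medium.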

MDREC 1229 [2] = experiment: microbe, parasite or virus in culture; format: cell-based, Escherichia coli
Procedure, shortened: as §1

MDREC 1238 = format: cell-based, Escherichia coli
Procedure, shortened: as §1

P. aeruginosa = experiment: microbe, parasite or virus in culture; format: cell-based, Pseudomonas aeruginosa
Procedure, shortened: as §1

MDRAB 12036 = format: cell-based, Acinetobacter baumannii
Procedure, shortened: as §1

S. typhimurium = experiment: microbe, parasite or virus in culture; format: cell-based, Salmonella typhimurium
Procedure, shortened: as §1

MDRST 8007 = experiment: Minimal inhibitory concentration (MIC), single agent; format: cell-based, Salmonella typhimurium; settings: agent alone
Procedure, shortened: as §1

MDRST 8009 = format: cell-based, Salmonella typhimurium; settings: agent alone
Procedure, shortened: as §1

S. epidermidis = experiment: microbe, parasite or virus in culture; format: cell-based, Staphylococcus epidermidis
Procedure, shortened: as §1

S. aureus = experiment: microbe, parasite or virus in culture; format: cell-based, Staphylococcus aureus
Procedure, shortened: as §1

MRSA 3114 = format: cell-based, Staphylococcus aureus; settings: 3114
Procedure, shortened: as §1

MRSA 3126 = format: cell-based, Staphylococcus aureus; settings: 3126
Procedure, shortened: as §1

E. coli [3] = experiment: MIC of antibiotic during combined treatment with antimicrobial peptide; format: cell-based, Escherichia coli; settings: for Antibiotic MIC, Erythromycin / Antibiotic MIC, Linezolid / Antibiotic MIC, Vancomycin: E. coli
Procedure, shortened: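 Using MH broth, we determined combination MICs by titrating the antibiotic into wells and then repeating under the reverse dilution scheme.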

MDREC 1229 [4] = experiment: as above; format: cell-based, Escherichia coli
Procedure, shortened: (§2)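 Broth microdilution in MH medium; strains were diluted to 2×10^6 CFU per ml before plating. Peptide was serially diluted stepwise at 2:1 starting from its MIC, and MH-diluted antibiotic was then added to determine MIC. The reversed arrangement was also tested.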

A. baumannii = experiment: MIC of antimicrobial peptide during combined treatment with antibiotic; format: cell-based, Acinetobacter baumannii
Procedure, shortened: as §2

MDRAB 12035 = experiment: as above; format: cell-based, Acinetobacter baumannii
Procedure, shortened: as §2

[5] = peptide treatment concentration 1 μg/ml
[6] = peptide treatment concentration 2 μg/ml
[7] = peptide treatment concentration 4 μg/ml
[8] = peptide treatment concentration 6 μg/ml
[9] = peptide treatment concentration 8 μg/ml
[10] = peptide treatment concentration 16 μg/ml
[11] = peptide treatment concentration 32 μg/ml
[12] = peptide treatment concentration 64 μg/ml
[13] = erythromycin 4 μg/ml (Conc./MIC 1/8)
[14] = erythromycin 8 μg/ml (Conc./MIC 1/4)
[15] = erythromycin 16 μg/ml (Conc./MIC 1/2)
[16] = erythromycin 32 μg/ml (Conc./MIC 1)
[17] = vancomycin 512 μg/ml (Conc./MIC 1/2)
[18] = vancomycin 1024 μg/ml (Conc./MIC 1)

CC[C@H](C)[C@H](NC(=O)[C@H](CCCCN)NC(=O)[C@H](Cc1c[nH]c2ccccc12)NC(=O)[C@@H](N)CCCNC(=N)N)C(=O)N[C@@H](Cc1ccccc1)C(=O)N[C@@H](CCCCN)C(=O)N[C@@H](CCCCN)C(=O)N[C@H](C(=O)N1CCC[C@H]1C(=O)N[C@@H](CCCCN)C(=O)N[C@@H](Cc1ccccc1)C(=O)N[C@@H](CC(C)C)C(=O)N[C@@H](Cc1c[nH]cn1)C(=O)N[C@@H](CO)C(=O)N[C@@H](CC(C)C)C(=O)N[C@@H](CCCCN)C(=O)N[C@@H](CCCCN)C(=O)N[C@@H](Cc1ccccc1)C(N)=O)[C@@H](C)CC [PapMA-6, RWK IFK KIP KFL HSL KKF-NH2] (H-RWKIFKKIPKFLHSLKKF-NH2; N-terminus assumed)
Minimal inhibitory concentration MIC (E. coli [1]): 64 mg/L (≈ 27.3 µM)
Minimal inhibitory concentration MIC (MDREC 1229 [2]): 64 mg/L (≈ 27.3 µM)
Minimal inhibitory concentration MIC (MDREC 1238): 64 mg/L (≈ 27.3 µM)
Minimal inhibitory concentration MIC (P. aeruginosa): 16 mg/L (≈ 6.83 µM)
Antibacterial activity (in words) (P. aeruginosa; P. aeruginosa and S. typhimurium): significantly increased
Minimal inhibitory concentration MIC (MDRAB 12036): 64 mg/L (≈ 27.3 µM)
Minimal inhibitory concentration MIC (S. typhimurium): 16 mg/L (≈ 6.83 µM)
Minimal inhibitory concentration MIC (MDRST 8007): 32 mg/L (≈ 13.7 µM)
Minimal inhibitory concentration MIC (MDRST 8009): 64 mg/L (≈ 27.3 µM)
Minimal inhibitory concentration MIC (S. epidermidis): >128 mg/L
Minimal inhibitory concentration MIC (S. aureus): >128 mg/L
Minimal inhibitory concentration MIC (MRSA 3114): >128 mg/L
Minimal inhibitory concentration MIC (MRSA 3126): >128 mg/L
Synergistic effect of antibacterial activity with existing antibiotics compared with PapMA-1 (E. coli [3]; E. coli and MDREC1229): higher level than the PapMA-1 peptide
Antibiotic MIC, Erythromycin (E. coli [3]; erythromycin combined with peptide at 1 μg/ml): 64 mg/L
Antibiotic MIC, Erythromycin (E. coli [3]; erythromycin combined with peptide at 2 μg/ml): 64 mg/L
Antibiotic MIC, Erythromycin (E. coli [3]; erythromycin combined with peptide at 4 μg/ml): 8 mg/L
Antibiotic MIC, Erythromycin (E. coli [3]; erythromycin combined with peptide at 6 μg/ml): 4 mg/L
Antibiotic MIC, Erythromycin (E. coli [3]; erythromycin combined with peptide at 8 μg/ml): 0.5 mg/L
Antibiotic MIC, Erythromycin (E. coli [3]; erythromycin combined with peptide at 16 μg/ml): 0.25 mg/L
Antibiotic MIC, Erythromycin (E. coli [3]; erythromycin combined with peptide at 32 μg/ml): 0.125 mg/L
Antibiotic MIC, Erythromycin (E. coli [3]; erythromycin combined with peptide at 64 μg/ml): 0 mg/L
Antibiotic MIC, Linezolid (E. coli [3]; linezolid combined with peptide at 1 μg/ml): >128 mg/L
Antibiotic MIC, Linezolid (E. coli [3]; linezolid combined with peptide at 2 μg/ml): >128 mg/L
Antibiotic MIC, Linezolid (E. coli [3]; linezolid combined with peptide at 4 μg/ml): 32 mg/L
Antibiotic MIC, Linezolid (E. coli [3]; linezolid combined with peptide at 6 μg/ml): 8 mg/L
Antibiotic MIC, Linezolid (E. coli [3]; linezolid combined with peptide at 8 μg/ml): 8 mg/L
Antibiotic MIC, Linezolid (E. coli [3]; linezolid combined with peptide at 16 μg/ml): 2 mg/L
Antibiotic MIC, Linezolid (E. coli [3]; linezolid combined with peptide at 32 μg/ml): 2 mg/L
Antibiotic MIC, Linezolid (E. coli [3]; linezolid combined with peptide at 64 μg/ml): 0 mg/L
Antibiotic MIC, Vancomycin (E. coli [3]; vancomycin combined with peptide at 1 μg/ml): >128 mg/L
Antibiotic MIC, Vancomycin (E. coli [3]; vancomycin combined with peptide at 2 μg/ml): >128 mg/L
Antibiotic MIC, Vancomycin (E. coli [3]; vancomycin combined with peptide at 4 μg/ml): 32 mg/L
Antibiotic MIC, Vancomycin (E. coli [3]; vancomycin combined with peptide at 6 μg/ml): 16 mg/L
Antibiotic MIC, Vancomycin (E. coli [3]; vancomycin combined with peptide at 8 μg/ml): 8 mg/L
Antibiotic MIC, Vancomycin (E. coli [3]; vancomycin combined with peptide at 16 μg/ml): 2 mg/L
Antibiotic MIC, Vancomycin (E. coli [3]; vancomycin combined with peptide at 32 μg/ml): 1 mg/L
Antibiotic MIC, Vancomycin (E. coli [3]; vancomycin combined with peptide at 64 μg/ml): 0 mg/L
Antibiotic MIC, Erythromycin (MDREC 1229 [4]; [5]): 64 mg/L
Antibiotic MIC, Linezolid (MDREC 1229 [4]; [5]): 128 mg/L
Antibiotic MIC, Vancomycin (MDREC 1229 [4]; [5]): >128 mg/L
Antibiotic MIC, Erythromycin (MDREC 1229 [4]; [6]): 32 mg/L
Antibiotic MIC, Linezolid (MDREC 1229 [4]; [6]): 64 mg/L
Antibiotic MIC, Vancomycin (MDREC 1229 [4]; [6]): >128 mg/L
Antibiotic MIC, Erythromycin (MDREC 1229 [4]; [7]): 8 mg/L
Antibiotic MIC, Linezolid (MDREC 1229 [4]; [7]): 32 mg/L
Antibiotic MIC, Vancomycin (MDREC 1229 [4]; [7]): >128 mg/L
Antibiotic MIC, Erythromycin (MDREC 1229 [4]; [8]): 2 mg/L
Antibiotic MIC, Linezolid (MDREC 1229 [4]; [8]): 8 mg/L
Antibiotic MIC, Vancomycin (MDREC 1229 [4]; [8]): 64 mg/L
Antibiotic MIC, Erythromycin (MDREC 1229 [4]; [9]): 1 mg/L
Antibiotic MIC, Linezolid (MDREC 1229 [4]; [9]): 8 mg/L
Antibiotic MIC, Vancomycin (MDREC 1229 [4]; [9]): 16 mg/L
Antibiotic MIC, Erythromycin (MDREC 1229 [4]; [10]): 0.25 mg/L
Antibiotic MIC, Linezolid (MDREC 1229 [4]; [10]): 4 mg/L
Antibiotic MIC, Vancomycin (MDREC 1229 [4]; [10]): 4 mg/L
Antibiotic MIC, Erythromycin (MDREC 1229 [4]; [11]): 0.125 mg/L
Antibiotic MIC, Linezolid (MDREC 1229 [4]; [11]): 1 mg/L
Antibiotic MIC, Vancomycin (MDREC 1229 [4]; [11]): 2 mg/L
Antibiotic MIC, Erythromycin (MDREC 1229 [4]; [12]): 0 mg/L
Antibiotic MIC, Linezolid (MDREC 1229 [4]; [12]): 0 mg/L
Antibiotic MIC, Vancomycin (MDREC 1229 [4]; [12]): 0 mg/L
Peptide MIC during treatment with antibiotic (A. baumannii; [13]): 4 mg/L
Peptide MIC during treatment with antibiotic (A. baumannii; [14]): 2 mg/L
Peptide MIC during treatment with antibiotic (A. baumannii; [15]): 1 mg/L
Peptide MIC during treatment with antibiotic (A. baumannii; [16]): 0 mg/L
Peptide MIC during treatment with antibiotic (A. baumannii; linezolid 32 μg/ml (Conc./MIC 1/8)): 4 mg/L
Peptide MIC during treatment with antibiotic (A. baumannii; linezolid 64 μg/ml (Conc./MIC 1/4)): 2 mg/L
Peptide MIC during treatment with antibiotic (A. baumannii; linezolid […] (Conc./MIC 1)): 0 mg/L
Peptide MIC during treatment with antibiotic (A. baumannii; linezolid […] (Conc./MIC 1/2)): 1 mg/L
Peptide MIC during treatment with antibiotic (A. baumannii; [17]): 0.25 mg/L
Peptide MIC during treatment with antibiotic (A. baumannii; [18]): 0 mg/L
Peptide MIC during treatment with antibiotic (A. baumannii; vancomycin […] (Conc./MIC 1/4)): 0.5 mg/L
Peptide MIC during treatment with antibiotic (A. baumannii; vancomycin […] (Conc./MIC 1/8)): 2 mg/L
Peptide MIC during treatment with erythromycin (MDRAB 12035; [13]): 4 mg/L
Peptide MIC during treatment with erythromycin (MDRAB 12035; [14]): 2 mg/L
Peptide MIC during treatment with erythromycin (MDRAB 12035; [15]): 1 mg/L
Peptide MIC during treatment with erythromycin (MDRAB 12035; [16]): 0 mg/L
Peptide MIC during treatment with linezolid (MDRAB 12035; linezolid 64 μg/ml (Conc./MIC 1/8)): 2 mg/L
Peptide MIC during treatment with linezolid (MDRAB 12035; linezolid 512 μg/ml (Conc./MIC 1)): 0 mg/L
Peptide MIC during treatment with linezolid (MDRAB 12035; linezolid […] (Conc./MIC 1/2)): 1 mg/L
Peptide MIC during treatment with linezolid (MDRAB 12035; linezolid […] (Conc./MIC 1/4)): 1 mg/L
Peptide MIC during treatment with vancomycin (MDRAB 12035; [17]): 1 mg/L
Peptide MIC during treatment with vancomycin (MDRAB 12035; [18]): 0.25 mg/L
Peptide MIC during treatment with vancomycin (MDRAB 12035; vancomycin […] (Conc./MIC 1/4)): 2 mg/L
Peptide MIC during treatment with vancomycin (MDRAB 12035; vancomycin […] (Conc./MIC 1/8)): 2 mg/L
